Experimental data reported in patent US8372967B2, “Compounds and methods for modulating expression of GCCR” (Isis Pharmaceuticals, Inc., priority 2006, dated 2013).
Strand notation (5' to 3'): a small letter for the sugar, then the base; units joined by * are phosphorothioate-linked, units joined directly phosphodiester-linked; [ ] holds rarer units or linkages, { } end groups; capitals alone tell only the bases. e = 2'-O-(2-methoxyethyl) (MOE); [5mC] = 5-methylcytosine; d = 2'-deoxy (DNA)

What was measured:
Format in all cases: in vivo
rat SGLT2 mRNA [1] = test: Rat SGLT2 mRNA in kidney, 1-10-1 and 1-10-2 MOE gapmers, Sprague-Dawley rats (Table 63)
Description: 1-10-1 and 1-10-2 MOE gapmer antisense compounds, provided in Table 62, were designed to target different regions of the mouse or rat SGLT2 RNA. All short antisense compounds in Table 62 are chimeric oligonucleotides (“gapmers”) either 12 or 13 nucleotides in length, composed of a central “gap” segment consisting of ten 2′-deoxynucleotides, which are flanked on the 5′ side by a one-nucleoside “wing” and on the 3′ side by a two or one-nucleotide “wing”. […] All cytidine residues are 5-methylcytidines.
The short antisense compounds were analyzed for their effect on rat SGLT2 mRNA levels. Data are ranges taken from three experiments in which Male Sprague-Dawley rats (170-200 g) were dosed twice per week for three weeks with 450, 150 or 50 nmol/kg of either a 1-10-1 or 1-10-2 MOE gapmer given by intraperitoneal injection. Rats were sacrificed 48 hours following last administration and evaluated for SGLT2 mRNA levels in kidney. Target levels were determined by RT, real-time PCR as described by other examples herein. PCR results were normalized to an internal ISIS control.

mouse SGLT2 mRNA [2] = test: Mouse SGLT2 mRNA in kidney, 1-10-1 MOE gapmers, Balb/c mice (Table 65)
Procedure: The short antisense compounds were analyzed for their effect on mouse SGLT2 mRNA levels. Data was taken from three experiments in which Male 6-week old Balb/c mice were dosed twice per week for two weeks with 450, 150, or 50 nmol/kg of one of the above 1-10-1 MOE gapmers given by intraperitoneal injection. Mice were sacrificed 48 hours following last administration and evaluated for SGLT2 mRNA levels in kidney. Target levels were determined by RT, real-time PCR as described by other examples herein. PCR results were normalized to an internal ISIS control.

rat SGLT2 mRNA [3] = test: Rat SGLT2 mRNA in kidney, 1-10-1 gapmers, 250 nmol/kg (Table 66); conditions: for % change in SGLT2 expression relative to saline: 250 nmol/kg i.p. twice per week for three weeks, Sprague-Dawley rat kidney
Procedure: The effect of the above 1-10-1 gapmers (see Table 64 above) on rat SGLT2 mRNA levels. Data are taken from four experiments in which male Sprague-Dawley rats (170-200 g) were dosed twice per week for three weeks with 250 nmol/kg given by intraperitoneal injection. Rats were sacrificed 48 hours following last administration and evaluated for SGLT2 mRNA levels in kidney. Target levels were determined by RT, real-time PCR as described by other examples herein. PCR results were normalized to an internal ISIS control.

mouse SGLT2 mRNA [4] = test: Mouse SGLT2 mRNA in kidney, additional 1-10-1 and 2-8-2 MOE gapmers (Table 68); conditions: Balb/c mouse kidney
Procedure: 1-10-1 and 2-8-2 MOE gapmer short antisense compounds were designed to target different regions of the mouse SGLT2 RNA but have complementarity across species. […] All cytidine residues are 5-methylcytidines.
The short antisense compounds were analyzed for their effect on mouse SGLT2 mRNA levels in vivo. Data was taken from three experiments in which male 6-week old Balb/c mice were dosed twice per week for three weeks with 0.5, 0.1, or 0.02 umol/kg of either a 1-10-1 or 2-8-2 MOE gapmer given by intraperitoneal injection. Mice were sacrificed 48 hours following last administration and evaluated for SGLT2 levels in kidney. Target levels were determined by RT, real-time PCR as described by other examples herein. PCR results were normalized to an internal ISIS control.

mouse SGLT2 mRNA [5] = test: Mouse SGLT2 mRNA in kidney, MOE versus Methyleneoxy BNA gapmers (Table 69); conditions: Balb/c mouse kidney
Procedure: The effect of ISIS 3796921-10-1 MOE gapmer and ISIS 3886252-8-2 MOE gapmer are compared with the effect of ISIS 3921701-10-1 Methyleneoxy BNA Gapmer and ISIS 3921732-8-2 Methyleneoxy BNA Gapmer (see Table 69) on mouse SGLT2 mRNA levels in vivo. Data are taken from three experiments in which male 6-week old Balb/c mice were dosed twice per week for three weeks with 5, 25 and 125 nmol/kg of either the ISIS 3796921-10-1 MOE gapmer or the ISIS 3886252-8-2 MOE gapmer given by intraperitoneal injection. Mice were sacrificed 48 hours following last administration and evaluated for SGLT2 mRNA levels in kidney. Target levels were determined by RT, real-time PCR as described by other examples herein. PCR results were normalized to an internal ISIS control. The data are expressed as percent change (“+” indicates an increase, “−” indicates a decrease) relative to saline treated animals and are illustrated in Table 69.

rat SGLT2 mRNA [6] = test: Rat SGLT2 mRNA in kidney, 1-10-1 and 2-8-2 MOE gapmer (Table 70); conditions: Sprague-Dawley rat kidney
Procedure: The effect of ISIS 3796921-10-1 MOE gapmer and ISIS 388625 MOE 2-8-2 gapmer (see Table 70) on rat SGLT2 mRNA levels in vivo. […] Rats were sacrificed 48 hours following last administration and evaluated for SGLT2 levels in kidney. Target levels were determined by RT, real-time PCR as described by other examples herein. PCR results were normalized to an internal ISIS control.

[7] = 50 nmol/kg i.p. twice per week for three weeks
[8] = 150 nmol/kg i.p. twice per week for three weeks
[9] = 450 nmol/kg i.p. twice per week for three weeks
[10] = 50 nmol/kg i.p. twice per week for two weeks
[11] = 150 nmol/kg i.p. twice per week for two weeks
[12] = 450 nmol/kg i.p. twice per week for two weeks
[13] = 0.02 umol/kg i.p. twice per week for three weeks
[14] = 0.1 umol/kg i.p. twice per week for three weeks
[15] = 0.5 umol/kg i.p. twice per week for three weeks

| Substance | % change in SGLT2 expression relative to saline (rat SGLT2 mRNA [1]; [7]) [%] | % change in SGLT2 expression relative to saline (rat SGLT2 mRNA [1]; [8]) [%] | % change in SGLT2 expression relative to saline (rat SGLT2 mRNA [1]; [9]) [%] | % change in SGLT2 expression relative to saline (mouse SGLT2 mRNA [2]; [10]) [%] | % change in SGLT2 expression relative to saline (mouse SGLT2 mRNA [2]; [11]) [%] | % change in SGLT2 expression relative to saline (mouse SGLT2 mRNA [2]; [12]) [%] | % change in SGLT2 expression relative to saline (rat SGLT2 mRNA [3]) [%] | % change in SGLT2 expression relative to saline (mouse SGLT2 mRNA [4]; [13]) [%] | % change in SGLT2 expression relative to saline (mouse SGLT2 mRNA [4]; [14]) [%] | % change in SGLT2 expression relative to saline (mouse SGLT2 mRNA [4]; [15]) [%] | SGLT2 mRNA, percent change relative to saline treated animals (mouse SGLT2 mRNA [5]; 5 nmol/kg i.p. twice per week for three weeks) [%] | SGLT2 mRNA, percent change relative to saline treated animals (mouse SGLT2 mRNA [5]; 25 nmol/kg i.p. twice per week for three weeks) [%] | SGLT2 mRNA, percent change relative to saline treated animals (mouse SGLT2 mRNA [5]; 125 nmol/kg i.p. twice per week for three weeks) [%] | % change in SGLT2 expression relative to saline (rat SGLT2 mRNA [6]; dose 3.125 umol/kg [sic] i.p. twice per week for three weeks) | % change in SGLT2 expression relative to saline (rat SGLT2 mRNA [6]; dose 12.5 umol/kg [sic] i.p. twice per week for three weeks) [%] | % change in SGLT2 expression relative to saline (rat SGLT2 mRNA [6]; dose 50 umol/kg [sic] i.p. twice per week for three weeks) [%] | % change in SGLT2 expression relative to saline (rat SGLT2 mRNA [6]; dose 200 umol/kg [sic] i.p. twice per week for three weeks) [%] | expression of SGLT2 in in vivo rat studies (rat SGLT2 mRNA [3]; 250 nmol/kg twice per week for three weeks) |
| --- | --- | --- | --- | --- | --- | --- | --- | --- | --- | --- | --- | --- | --- | --- | --- | --- | --- | --- |
| ISIS 379692: 1-10-1 MOE gapmer, SGLT2 (eT*dG*dT*dT*d[5mC]*d[5mC]*dA*dG*d[5mC]*d[5mC]*d[5mC]*eA) | −80 | −85 | −90 | −52.5 | −70 | −80 | −85 | −55 | −75 | −85 | −7 | −46 | −58 | +30% | −15 | −65 | −80 |  |
| ISIS 379699: GGCATGAGCTTC 1-10-1 MOE, SGLT2 (eG*dG*d[5mC]*dA*dT*dG*dA*dG*d[5mC]*dT*dT*e[5mC]) | −60 | −75 | −83 | −42.5 | −62.5 | −80 | −75 | −30 | −60 | −75 |  |  |  |  |  |  |  |  |
| ISIS 379702 (eG*d[5mC]*dA*d[5mC]*dA*d[5mC]*dA*dG*d[5mC]*dT*dG*e[5mC]) |  |  |  | −52.5 | −72.5 | −75 | −25 | −40 | −65 | −70 |  |  |  |  |  |  |  |  |
| ISIS 381408: 1-10-1 MOE gapmer targeting SGLT2 mRNA (TACCGAACACCT; sugars from the 5' end e1 d10 e1, backbone and methylation of C not given here) |  |  |  |  |  |  | −5 |  |  |  |  |  |  |  |  |  |  | Activity of ISIS 381408 has been shown |
